Series [1] is described as follows: Water solubility assay (UV spectrophotometric method). The class given is physicochemical. Conditions: aqueous buffer, thermodynamic from solid, water (buffer pH 7.4), stirring 4 h at 37 °C. The method, then: The solubility assay was performed considering the absorptivity of compounds under ultraviolet spectroscopy as described by Schneider et al.[20] Assay wavelength was determined through λmax characteristic of each compound. Saturated aqueous solutions were prepared (0.8–1.0 mg/mL) and kept under stirring for 4 h at 37 °C. The supernatant was filtered in […] filters and transferred to a quartz cuvette (10 mm) for spectra acquisition. Solubility was determined by linear regression used as Excel graph plots, solutions were prepared by dilutions of the original solution in methanol. Data were collected in triplicate and the mean values were used to create the graph plots. The correlation coefficient (R^2) values were between 0.9982 and 1.
The N-sulphonylhydrazone derivatives 5a–h were evaluated for their ability to inhibit both ROCK1 and ROCK2 isoforms by measuring the phosphorylation of the Ulight-RRRSLLE substrate using human recombinant enzymes expressed in Sf9[23] and Sf21^24 cells, respectively. Prior to this assay, we evaluated the solubility of these compounds in water (buffer pH 7.4) to ensure that the inhibition percentages were not influenced by the precipitation of the compounds under test conditions. The enzymatic assay was initially performed at a screening concentration of 3 μM, which is capable of guaranteeing the solubility of most of the compounds, and the obtained results are shown in Table 2.

For series [2], the system named is MDA-MB 231 cells. The experiment in a line: Plasma membrane integrity assay (LDH). Conditions: 0.1 to 30 µM, 24 and 48 h. The series is classed as cell-based, human. The method, then:
The human mammary gland/breast epithelial cell line MDA-MB 231 was obtained from the American Type Culture Collection (ATCC® HTB-26™) and this use was approved by the Ethics Committee for Animal Care and Use in Scientific Research from the Federal University of Rio de Janeiro. Cells were routinely grown in RPMI medium containing 10% foetal bovine serum (FBS), 1% L-glutamine and 1% penicillin-streptomycin, in a humidified 5% CO2 atmosphere at 37 °C. Cells were cultured up to 70–100% confluence and then some cultures were treated with the compounds at different concentrations for 24 or 48 h. All cell culture reagents were purchased from Invitrogen (São Paulo, Brazil).
To measure plasma membrane integrity, we assayed serum lactate dehydrogenase (LDH) levels and calculated percentages of LDH release to the medium. LDH activity was measured spectrophotometrically using a commercial kit (Doles, Goiás, Brazil). […] Then, 10 μl of NAD were added and absorbance intensities were measured in a microplate reader (FlexStation® 3 Reader, Molecular Devices) at 490 nm. The percentage of LDH release was calculated by ([LDH] sample ×100)/total [LDH]. […]
We also analysed the plasma membrane integrity by measuring the serum lactate dehydrogenase (LDH) levels in the culture medium to confirm the cell viability data. […]

Series [3] concerns the target T1, IKK-β (Homo sapiens, UniProt O14920).
T1 sequence (O14920 1-756): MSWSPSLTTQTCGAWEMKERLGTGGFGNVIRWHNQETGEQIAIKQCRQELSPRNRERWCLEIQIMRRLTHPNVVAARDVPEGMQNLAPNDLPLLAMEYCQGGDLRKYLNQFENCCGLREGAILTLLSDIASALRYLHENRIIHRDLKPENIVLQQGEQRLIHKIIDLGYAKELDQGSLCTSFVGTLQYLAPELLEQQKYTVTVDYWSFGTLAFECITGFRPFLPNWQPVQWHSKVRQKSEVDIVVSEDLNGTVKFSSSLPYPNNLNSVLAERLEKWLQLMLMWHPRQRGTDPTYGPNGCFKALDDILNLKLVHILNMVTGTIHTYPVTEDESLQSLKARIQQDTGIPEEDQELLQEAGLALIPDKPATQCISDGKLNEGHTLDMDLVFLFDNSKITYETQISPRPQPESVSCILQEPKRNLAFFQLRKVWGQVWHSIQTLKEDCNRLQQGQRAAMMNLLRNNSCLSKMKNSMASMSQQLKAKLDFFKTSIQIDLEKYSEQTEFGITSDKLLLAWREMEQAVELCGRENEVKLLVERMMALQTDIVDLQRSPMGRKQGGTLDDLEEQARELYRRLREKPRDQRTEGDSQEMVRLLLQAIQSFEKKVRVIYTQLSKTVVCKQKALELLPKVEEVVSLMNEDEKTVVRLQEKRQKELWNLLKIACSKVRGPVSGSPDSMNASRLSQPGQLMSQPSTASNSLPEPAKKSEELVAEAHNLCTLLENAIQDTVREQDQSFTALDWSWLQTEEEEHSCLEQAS
The series can be described thus: IKK-β inhibition screening. The class given is biochemical. To be noted: screening concentration of 10 μM; data not shown. The source says: Furthermore, considering that 2 (LASSBio-1524) was used in the structural design of this new family of ROCK inhibitors we also investigated the ability of 5b (LASSBio-2020) and 11 (LASSBio-2065) to inhibit IKK-β.

Molecules are shown by their SMILES. In brackets after ≈: the same amount, converted by molar mass.

The source of these data is article PMC6060383, “Synthesis and pharmacological evaluation of novel isoquinoline N-sulphonylhydrazones designed as ROCK inhibitors” (Journal of Enzyme Inhibition and Medicinal Chemistry, 2018).

Usually solubility stands for how much of the substance goes into solution per volume. The low end stands for a poorly soluble substance, the high end for a readily soluble substance. One may read the melting point as the temperature of the solid-liquid transition.

On to `O=S(=O)(N/N=C/c1ccccc1)c1cccc2cnccc12` [Compound 5b, (E)-N′-benzylideneisoquinoline-5-sulphonohydrazide], for which the melting point was found to be 172 °C. In series [1], this molecule yielded a solubility at 4 h of 54 µM (≈ 16.8 µg/mL). In series [2], the “LDH levels in culture medium / cytotoxicity in LDH assay (result in words)” value was “not altered”. For the same molecule, the “IKK-β inhibition (result in words)” value in series [3] is “none of these N-sulphonylhydrazone derivatives was able to inhibit IKK-β”.
